Where two headings read alike, the source gives them in different places.
Columns and labels:
[1] = system: 52-kDa protein; settings: Biegel and Safe, 1990; cited from earlier work
[2] = system: female rat uterus; experiment: Antiestrogenic effect on uterine wet weight, immature female Sprague-Dawley rats (Example 8); type: in vivo; settings: run A
[3] = system: Ah receptor; experiment: Binding affinity for the Ah receptor
[4] = system: progesterone receptor (PR); experiment: Uterine progesterone receptor levels, hydroxyapatite assay (Example 8); type: in vivo, female Sprague-Dawley rats; settings: run A
Description: The animals were terminated by cervical dislocation. Livers were perfused with ice-cold TEDG buffer (10 mM Tris-HCl, 1.5 mM EDTA-4Na, 1 mM dithiothreitol, 10% glycerol (v/v), pH 7.4). Following perfusion in situ, livers were removed, weighed, and homogenized in ice-cold TEDG buffer. Uteri were also removed, weighed, and homogenized in ice-cold buffer. The homogenates were then centrifuged at 800×g ([…]) for 15 minutes and the nuclear pellets were stored at -80° C. The supernatants were further centrifuged at 180,000× g for 1.5 hours. The cytosolic supernatant was also stored at -80° C. Estrogen and progesterone receptor levels were determined within 7 days.
Estrogen (ER) and progesterone (PR) receptor levels were determined by the hydroxyapatite assay as described by Clark et al. (J. Steroid Biochem. 16:323-328, 1982) and incorporated herein by reference. […] Following the incubations, samples were counted and specific binding was calculated by subtraction of nonspecific from total binding. Assuming one steroid molecule binds to one estrogen/progesterone receptor, the number of moles of receptor can be calculated given the specific activity of the radioligand. The data presented in Tables 1 through 6 are means ± SD using at least four animals per treatment group. Significant differences were determined by analysis of variance.

[5] = system: 34-kDa protein; settings: Biegel and Safe, 1990; cited from earlier work
[6] = system: uterus; settings: weanling female C57BL/6 mice; cited from earlier work
[7] = system: mammary and uterine tumors; settings: long term feeding studies; cited from earlier work
[8] = in vivo; cited from earlier work
[9] = system: estrogen receptor; settings: cited from earlier work
[10] = system: MDA-MB-231 cell line; settings: cited from earlier work
[11] = system: uterus; settings: cited from earlier work
[12] = 150 μmol/kg + E-2 (2 × 10 μg/rat)
[13] = compound alone, 150 μmol/kg (17β-estradiol: 2 × 10 μg/rat)

Row | Compound | 17β-estradiol-induced secretion of the 52-kDa protein [1] | Uterine Wet Weight [2, 12] [% body wt] | Uterine Wet Weight [2, 13] [% body wt] | Ah receptor binding activity [3] | Progesterone Receptor Levels, Cytosolic [4, 12] [fmol/mg protein] | Progesterone Receptor Levels, Nuclear [4, 12] [fmol/mg protein] | Progesterone Receptor Levels, Cytosolic [4, 13] [fmol/mg protein] | Progesterone Receptor Levels, Nuclear [4, 13] [fmol/mg protein] | 17β-estradiol-induced secretion of the 34-kDa protein [5] | uterine weights [6] | spontaneous development of mammary and uterine tumors [7] | hepatocarcinogenicity [8] | binding to the estrogen receptor [9] | secretion of the 34-, 52- and 160-kDa proteins ([10]; TCDD plus 17β-estradiol) | secretion of the 34-, 52- and 160-kDa proteins ([10]; compound alone) | estrogenic effects of 17β-estradiol on uterine weights ([11]; TCDD with 17β-estradiol) | uterine weights ([11]; female Long Evans rats)
1 | Cc1cc(Cl)cc2c1oc1cc(Cl)cc(Cl)c12 [MCDF, 6-methyl 1,3,8-trichlorodibenzofuran] | inhibits | 0.194 ± 0.023 | 0.104 ± 0.004 | relatively high | 1203 ± 110 | 435 ± 91 | 915 ± 63 | 312 ± 50 | inhibits |  |  |  |  |  |  |  | 
2 | Clc1cc2c(cc1Cl)Oc1cc(Cl)c(Cl)cc1O2 [TCDD, 2,3,7,8-tetrachloridibenzo-p-dioxin] |  |  |  |  |  |  |  |  |  | decreased | significantly decreased | so hepatocarcinogenic | does not bind | did not affect | did not affect | partially blocked | decreased

— patent US5516790A, “Synthesis and application of alkyl-substituted dibenzofurans as antitumorigenic agents” (Texas A&M University System Technology Licensing Office, priority 1994, dated 1996)
